PA-7 (MIC) and EC-1 (MIC) data for 30 compounds are collected here from patent publication US8846933B2, “N-link hydroxamic acid derivatives useful as antibacterial agents” (Pfizer Inc., priority 2009, dated 2014).

Assay [1] has as its system Pseudomonas aeruginosa UI-18: Wild-type (PA-7). The assay is described as follows: MIC determination (CLSI), strain PA-7. It counts as cell-based. To be noted: strain PA-7, unit assumed. The gist of the method: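 MIC determined by broth dilution per CLSI M7-A7 guidelines with M100-S18 interpretive standards. Test organism: wild-type Pseudomonas aeruginosa UI-18, designated PA-7.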

Assay [2] has as its system Escherichia coli EC-1: VOGEL, mouse virulent. Nature of the assay: MIC determination (CLSI), strain EC-1. The assay is classed as cell-based. To be noted: strain EC-1, unit assumed. A digest of the protocol: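 The mouse-virulent VOGEL isolate of E. coli, EC-1, served as test organism. Minimum inhibitory concentration was measured by CLSI dilution methodology (M7-A7; M100-S18 standards).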

[3] abbreviates: generated in the same manner as in Table 4.

With `CC(CCn1ccc(-c2cc(F)ccc2F)cc1=O)(C(=O)NO)S(C)(=O)=O` (stereo not drawn) [Example 196, 4-[4-(2,5-difluorophenyl)-2-oxopyridin-1(2H)-yl]-N-hydroxy-2-methyl-2-(methylsulfonyl)butanamide], the PA-7 (MIC) in assay [1] was found to be 4 µg/mL. Also, the EC-1 (MIC) in assay [2] is 8 µg/mL.
For `Cc1c(-c2ccc(OC(F)F)cc2)ccn(CC[C@](C)(C(=O)NO)S(C)(=O)=O)c1=O` [Example 399, (2R)-4-{4-[4-(difluoromethoxy)phenyl]-3-methyl-2-oxopyridin-1(2H)-yl}-N-hydroxy-2-methyl-2-(methylsulfonyl)butanamide], in that order: 1 µg/mL and 0.5 µg/mL.
Taken in the same sequence, the figures for `CC(CCn1ccc(-c2ccc(F)c(Cl)c2)cc1=O)(C(=O)NO)S(C)(=O)=O` (stereo not drawn) [Example 214] were 2 µg/mL and 1 µg/mL.
`Cc1c(-c2ccc(F)cc2)ccn(CC[C@](C)(C(=O)NO)S(C)(=O)=O)c1=O` [Example 395, (2R)-4-[4-(4-fluorophenyl)-3-methyl-2-oxopyridin-1(2H)-yl]-N-hydroxy-2-methyl-2-(methylsulfonyl)butanamide] returned a PA-7 (MIC) in assay [1] of 2 µg/mL. The EC-1 (MIC) in assay [2] was determined as 1 µg/mL.
As for `CC(CCn1ccc(-c2ccc3c(c2)CCO3)cc1=O)(C(=O)NO)S(C)(=O)=O` (stereo not drawn) [Example 164, 4-[4-(2,3-dihydro-1-benzofuran-5-yl)-2-oxopyridin-1(2H)-yl]-N-hydroxy-2-methyl-2-(methylsulfonyl)butanamide], the PA-7 (MIC) in assay [1] (setting [3]) amounted to 32 µg/mL. Moreover, the EC-1 (MIC) in assay [2] (setting [3]) turned out to be 8 µg/mL.
The compound `C[C@@](CCn1ccc(-c2ccc(OC(F)(F)F)cc2)cc1=O)(C(=O)NO)S(C)(=O)=O` [Example 391, (2R)-N-hydroxy-2-methyl-2-(methylsulfonyl)-4-{2-oxo-4-[4-(trifluoromethoxy)phenyl]pyridin-1(2H)-yl}butanamide] returned a PA-7 (MIC) in assay [1] of 0.5 µg/mL. This compound also gave an EC-1 (MIC) in assay [2] of 0.25 µg/mL.
`CC(O)Cc1cccc(-c2ccn(CCC(C)(C(=O)NO)S(C)(=O)=O)c(=O)c2)c1` (stereo not drawn) [Example 231, N-hydroxy-4-{4-[3-(2-hydroxypropyl)phenyl]-2-oxopyridin-1(2H)-yl}-2-methyl-2-(methylsulfonyl)butanamide] registered a PA-7 (MIC) in assay [1] of over 64 µg/mL. In assay [2], the EC-1 (MIC) was over 64 µg/mL.
Regarding `CC(CCn1ccc(-c2ccc(OCCO)c(Cl)c2)cc1=O)(C(=O)NO)S(C)(=O)=O` (stereo not drawn) [Example 236, 4-{4-[3-chloro-4-(2-hydroxyethoxy)phenyl]-2-oxopyridin-1(2H)-yl}-N-hydroxy-2-methyl-2-(methylsulfonyl)butanamide], the PA-7 (MIC) in assay [1] turned out to be 16 µg/mL. For the same compound, the EC-1 (MIC) in assay [2] worked out at 32 µg/mL.
The compound `Cc1ccc(N)cc1-c1ccn(CCC(C)(C(=O)NO)S(C)(=O)=O)c(=O)c1` (stereo not drawn) [Example 108, 4-[4-(5-amino-2-methylphenyl)-2-oxopyridin-1(2H)-yl]-N-hydroxy-2-methyl-2-(methylsulfonyl)butanamide] gave a PA-7 (MIC) in assay [1] (setting [3]) of over 64 µg/mL. Besides, in assay [2] (setting [3]), the EC-1 (MIC) is over 64 µg/mL.
In the case of `CC(CCn1ccc(-c2ccc3cc[nH]c3c2)cc1=O)(C(=O)NO)S(C)(=O)=O` (stereo not drawn) [Example 176, N-hydroxy-4-[4-(1H-indol-6-yl)-2-oxopyridin-1(2H)-yl]-2-methyl-2-(methylsulfonyl)butanamide], the PA-7 (MIC) in assay [1] (setting [3]) was 4 µg/mL. This compound also showed an EC-1 (MIC) in assay [2] (setting [3]) of 8 µg/mL.
`CC(CCn1ccc(-c2ccc(-c3cccnc3)c(F)c2)cc1=O)(C(=O)NO)S(C)(=O)=O` (stereo not drawn) [Example 297, 4-[4-(3-fluoro-4-pyridin-3-ylphenyl)-2-oxopyridin-1(2H)-yl]-N-hydroxy-2-methyl-2-(methylsulfonyl)butanamide] returned a PA-7 (MIC) in assay [1] of 2 µg/mL. In assay [2], the EC-1 (MIC) came out at 1 µg/mL.
On to `CC(C)NC(=O)c1ccc(-c2ccn(CCC(C)(C(=O)NO)S(C)(=O)=O)c(=O)c2)cc1` (stereo not drawn) [Example 146, 4-{1-[4-(hydroxyamino)-3-methyl-3-(methylsulfonyl)-4-oxobutyl]-2-oxo-1,2-dihydropyridin-4-yl}-N-isopropylbenzamide], for which the PA-7 (MIC) in assay [1] (setting [3]) was over 64 µg/mL. Moreover, the EC-1 (MIC) in assay [2] (setting [3]) is over 64 µg/mL.
As to `Cc1ccc(-c2ccn(CC[C@](C)(C(=O)NO)S(C)(=O)=O)c(=O)c2)cc1F` [Example 322, (2R)-4-[4-(3-fluoro-4-methylphenyl)-2-oxopyridin-1(2H)-yl]-N-hydroxy-2-methyl-2-(methylsulfonyl)butanamide], in assay [1], the PA-7 (MIC) was 0.5 µg/mL. In assay [2], this compound displayed an EC-1 (MIC) of 0.5 µg/mL.
`Cc1ccc(-c2ccn(CCC(C)(C(=O)NO)S(C)(=O)=O)c(=O)c2)o1` (stereo not drawn) [Example 158] came in with a PA-7 (MIC) in assay [1] (setting [3]) of 64 µg/mL. In assay [2] (setting [3]), this compound displayed an EC-1 (MIC) of 64 µg/mL.
Compound `CC(CCn1ccc(-c2ccc(OCCc3ccccn3)cc2)cc1=O)(C(=O)NO)S(C)(=O)=O` (stereo not drawn) [Example 272, N-hydroxy-2-methyl-2-(methylsulfonyl)-4-{2-oxo-4-[4-(2-pyridin-2-ylethoxy)phenyl]pyridin-1(2H)-yl}butanamide] displayed a PA-7 (MIC) in assay [1] of 2 µg/mL. This compound registered an EC-1 (MIC) in assay [2] of 0.5 µg/mL.
`CC(CCn1ccc(-c2ccc(OCCCO)c(Cl)c2)cc1=O)(C(=O)NO)S(C)(=O)=O` (stereo not drawn) [Example 246, 4-{4-[3-chloro-4-(3-hydroxypropoxy)phenyl]-2-oxopyridin-1(2H)-yl}-N-hydroxy-2-methyl-2-(methylsulfonyl)butanamide] showed a PA-7 (MIC) in assay [1] of 4 µg/mL. For the same compound, in assay [2], the EC-1 (MIC) is 2 µg/mL.
With `Cc1ccc(F)cc1-c1ccn(CCC(C)(C(=O)NO)S(C)(=O)=O)c(=O)c1` (stereo not drawn) [Example 171, 4-[4-(5-fluoro-2-methylphenyl)-2-oxopyridin-1(2H)-yl]-N-hydroxy-2-methyl-2-(methylsulfonyl)butanamide], the PA-7 (MIC) in assay [1] (setting [3]) worked out at 32 µg/mL. This compound registered an EC-1 (MIC) in assay [2] (setting [3]) of 64 µg/mL.
The compound `CC(CCn1ccc(-c2ccc3cnccc3c2)cc1=O)(C(=O)NO)S(C)(=O)=O` (stereo not drawn) [Example 260, N-hydroxy-4-(4-isoquinolin-6-yl-2-oxopyridin-1(2H)-yl)-2-methyl-2-(methylsulfonyl)butanamide] had a PA-7 (MIC) in assay [1] of 4 µg/mL. The EC-1 (MIC) in assay [2] was 4 µg/mL.
For the compound `Cc1cnn(-c2ccc(-c3ccn(CCC(C)(C(=O)NO)S(C)(=O)=O)c(=O)c3)cc2)n1` (stereo not drawn) [Example 455], in assay [1], the PA-7 (MIC) stood at 1 µg/mL. In assay [2], the EC-1 (MIC) amounted to 0.06 µg/mL.
The compound `CC(CCn1ccc(-c2cccc(C(F)(F)F)c2)cc1=O)(C(=O)NO)S(C)(=O)=O` (stereo not drawn) [Example 143, N-hydroxy-2-methyl-2-(methylsulfonyl)-4-{2-oxo-4-[3-(trifluoromethyl)phenyl]pyridin-1(2H)-yl}butanamide] came in with a PA-7 (MIC) in assay [1] (setting [3]) of 8 µg/mL. This compound yielded an EC-1 (MIC) in assay [2] (setting [3]) of 4 µg/mL.
Taken in the same sequence, the figures for `CC(CCn1ccc(-c2ccc(OCCO)c(F)c2)cc1=O)(C(=O)NO)S(C)(=O)=O` (stereo not drawn) [Example 76, 4-{4-[3-fluoro-4-(2-hydroxyethoxy)phenyl]-2-oxopyridin-1(2H)-yl}-N-hydroxy-2-methyl-2-(methylsulfonyl)butanamide] were 32 µg/mL and 16 µg/mL.
For `CC(CCn1ccc(-c2cc(Cl)ccc2F)cc1=O)(C(=O)NO)S(C)(=O)=O` (stereo not drawn) [Example 150, 4-[4-(5-chloro-2-fluorophenyl)-2-oxopyridin-1(2H)-yl]-N-hydroxy-2-methyl-2-(methylsulfonyl)butanamide], in that order: 4 µg/mL and 4 µg/mL.
Take `Cc1ccc(S(=O)(=O)N(C)C)cc1-c1ccn(CCC(C)(C(=O)NO)S(C)(=O)=O)c(=O)c1` (stereo not drawn) [Example 160, 4-[4-{5-[(dimethylamino)sulfonyl]-2-methylphenyl}-2-oxopyridin-1(2H)-yl]-N-hydroxy-2-methyl-2-(methylsulfonyl)butanamide]: the PA-7 (MIC) in assay [1] (setting [3]) was over 64 µg/mL. This compound had an EC-1 (MIC) in assay [2] (setting [3]) of over 64 µg/mL.
On to `C[C@@](CCn1ccc(-c2cc(F)ccc2Cl)cc1=O)(C(=O)NO)S(C)(=O)=O` [Example 392, (2R)-4-[4-(2-chloro-5-fluorophenyl)-2-oxopyridin-1(2H)-yl]-N-hydroxy-2-methyl-2-(methylsulfonyl)butanamide], for which the PA-7 (MIC) in assay [1] is 8 µg/mL. The compound further returned an EC-1 (MIC) in assay [2] of 16 µg/mL.
For `CC(CCn1ccc(-c2cccc3cnccc23)cc1=O)(C(=O)NO)S(C)(=O)=O` (stereo not drawn) [Example 215, N-hydroxy-4-(4-isoquinolin-5-yl-2-oxopyridin-1(2H)-yl)-2-methyl-2-(methylsulfonyl)butanamide], in that order: 64 µg/mL and over 64 µg/mL.
Taken in the same sequence, the figures for `CC(CCn1ccc(-c2ccc3cc(OCCO)ccc3c2)cc1=O)(C(=O)NO)S(C)(=O)=O` (stereo not drawn) [Example 273, N-hydroxy-4-{4-[6-(2-hydroxyethoxy)-2-naphthyl]-2-oxopyridin-1(2H)-yl}-2-methyl-2-(methylsulfonyl)butanamide] were 4 µg/mL and 0.5 µg/mL.
On to `CCOc1ccc(-c2ccn(CC[C@](C)(C(=O)NO)S(C)(=O)=O)c(=O)c2)c(F)c1` [Example 361, (2R)-4-[4-(4-ethoxy-2-fluorophenyl)-2-oxopyridin-1(2H)-yl]-N-hydroxy-2-methyl-2-(methylsulfonyl)butanamide], for which the PA-7 (MIC) in assay [1] is 2 µg/mL. Besides, in assay [2], the EC-1 (MIC) amounted to 0.5 µg/mL.
`Cc1cnc(N2CC=C(c3ccn(CC[C@](C)(C(=O)NO)S(C)(=O)=O)c(=O)c3)CC2)nc1` [Example 420, (2R)-N-hydroxy-2-methyl-4-[1′-(5-methylpyrimidin-2-yl)-2-oxo-1′,2′,3′,6′-tetrahydro-4,4′-bipyridin-1(2H)-yl]-2-(methylsulfonyl)butanamide] gave a PA-7 (MIC) in assay [1] of 8 µg/mL. The compound further gave an EC-1 (MIC) in assay [2] of 4 µg/mL.
For the compound `C[C@@](CCn1ccc(-c2ccc(OCCCCCO)cc2)cc1=O)(C(=O)NO)S(C)(=O)=O` [Example 280, (2R)-N-hydroxy-4-[4-{4-[(5-hydroxypentyl)oxy]phenyl}-2-oxopyridin-1(2H)-yl]-2-methyl-2-(methylsulfonyl)butanamide], in assay [1], the PA-7 (MIC) turned out to be 0.5 µg/mL. The compound also came in with an EC-1 (MIC) in assay [2] of 0.25 µg/mL.
For `COCCc1cccc(-c2ccn(CC[C@](C)(C(=O)NO)S(C)(=O)=O)c(=O)c2)c1` [Example 470], in that order: 32 µg/mL and 16 µg/mL.
